Data taken from patent US9668962B2, “Compositions and related methods for oral wellness” (NOWSystem, Inc., priority 2012, dated 2017).

Experiments:
[1] = test system: S. mutans; assay: zone of inhibition on blood agar, drop technique and line method (Example 2); type: cell-based, Streptococcus mutans; conditions: control, 3 ul of 20%; after 3 days of incubation
Procedure: (§1) Experimental Design: Blood agar (for the 3 anaerobic bacteria, 1 facultative bacterium and 1 aerobic yeast; Fisher Scientific) plates were individually swabbed with fresh 24 h broth cultures of C. albicans, P. gingivalis, P. intermedia, F. nucleatum and S. mutans to provide a confluent lawn of microbial growth. […] Assays were conducted in duplicate and undiluted and 1:5 and 1:10 dilutions of the solutions and sterile saline (negative control) were used. The plates were incubated agar-side up at 37° C. in a GasPak anaerobic jar or in 5% CO2 for 72 h. Plates were examined at 72 h for zones of inhibition of growth of the microbes. The diameter of each zone was measured in mm. The zones of inhibition of each dilution sample were compared to the zones of control saline without antimicrobial components. If the zones of the solutions were the same size (or smaller) than the inhibition zones from the control saline than there was judged no inhibition of antimicrobial activity by the antimicrobial solutions. Conversely, if the zones of the solutions were larger than the inhibition zones from the control saline than there was judged significant antimicrobial activity by the solutions. It was anticipated that there will be significant inhibition of microbial growth by at least some of the antimicrobial wheat grass products. […]

[2] = test system: P. gingivalis; assay: as above; type: cell-based, Porphyromonas gingivalis; conditions: control, 3 ul of 20%; after 3 days of incubation
Procedure: Experimental Design: Blood agar (for the 3 anaerobic bacteria, 1 facultative bacterium and 1 aerobic yeast; Fisher Scientific) plates were individually swabbed with fresh 24 h broth cultures of C. albicans, P. gingivalis, P. intermedia, F. nucleatum and S. mutans to provide a confluent lawn of microbial growth. Five minutes after swabbing the plates (to allow the inoculum to absorb into the agar), the test and control specimens ([…]) onto designated places on the plates and allowed to adsorb (or adhere, in the case of the undiluted sera) into the agar. Assays were conducted in duplicate and undiluted and 1:5 and 1:10 dilutions of the solutions and sterile saline (negative control) were used. The plates were incubated agar-side up at 37° C. in a GasPak anaerobic jar or in 5% CO2 for 72 h. Plates were examined at 72 h for zones of inhibition of growth of the microbes. The diameter of each zone was measured in mm. The zones of inhibition of each dilution sample were compared to the zones of control saline without antimicrobial components. If the zones of the solutions were the same size (or smaller) than the inhibition zones from the control saline than there was judged no inhibition of antimicrobial activity by the antimicrobial solutions. […]

[3] = test system: P. intermedia; assay: as above; type: cell-based, Prevotella intermedia; conditions: control, 3 ul of 20%; after 3 days of incubation
Procedure: Experimental Design: Blood agar (for the 3 anaerobic bacteria, 1 facultative bacterium and 1 aerobic yeast; Fisher Scientific) plates were individually swabbed with fresh 24 h broth cultures of C. albicans, P. gingivalis, P. intermedia, F. nucleatum and S. mutans to provide a confluent lawn of microbial growth. Five minutes after swabbing the plates (to allow the inoculum to absorb into the agar), the test and control specimens ([…] adhere, in the case of the undiluted sera) into the agar. Assays were conducted in duplicate and undiluted and 1:5 and 1:10 dilutions of the solutions and sterile saline (negative control) were used. The plates were incubated agar-side up at 37° C. in a GasPak anaerobic jar or in 5% CO2 for 72 h. Plates were examined at 72 h for zones of inhibition of growth of the microbes. The diameter of each zone was measured in mm. The zones of inhibition of each dilution sample were compared to the zones of control saline without antimicrobial components. If the zones of the solutions were the same size (or smaller) than the inhibition zones from the control saline than there was judged no inhibition of antimicrobial activity by the antimicrobial solutions. Conversely, if the zones of the solutions were larger than the inhibition zones from the control saline than there was judged significant antimicrobial activity by the solutions. […]

[4] = test system: F. nucleatum; assay: as above; type: cell-based, Fusobacterium nucleatum; conditions: control, 3 ul of 20%; after 3 days of incubation
Procedure: as §1

[5] = test system: S. mutans; assay: zone of inhibition on blood agar, drop technique and line method (Example 3); type: cell-based, Streptococcus mutans; conditions: control spot, dilution not given; after 5 days of incubation
Procedure: (§2) Experimental Design: Blood agar (for the 3 anaerobic bacteria, 3 facultative bacteria and 1 aerobic yeast; Fisher Scientific) plates were individually swabbed with fresh 24 h broth cultures of C. rectus, Aggregatibacter actinomycetemcomitans (A.a), C. albicans, P. gingivalis, P. intermedia, F. nucleatum and S. mutans to provide a confluent lawn of microbial growth. Five minutes after swabbing the plates (to allow the inoculum to absorb into the agar), the test and control specimens (see below) were aseptically pipetted (5 ul) onto designated places on the plates and allowed to adsorb (or adhere, in the case of the undiluted sera) into the agar. Assays were conducted in duplicate and undiluted and 1:5 and 1:10 dilutions of the solutions and sterile saline (negative control) and chlorhexidine (CHX) were used. […] The diameter of each zone was measured in mm. The zones of inhibition of each dilution sample were compared to the zones of control saline without antimicrobial components. If the zones of the solutions were the same size (or smaller) than the inhibition zones from the control saline than there was judged no inhibition of antimicrobial activity by the antimicrobial solutions. Conversely, if the zones of the solutions were larger than the inhibition zones from the control saline than there was judged significant antimicrobial activity by the solutions. […]

[6] = test system: C. albicans; assay: as above; type: cell-based, Candida albicans; conditions: control spot, dilution not given; after 5 days of incubation
Procedure: as §2

[7] = test system: P. gingivalis; assay: as above; type: cell-based, Porphyromonas gingivalis; conditions: control spot, dilution not given; after 5 days of incubation
Procedure: as §2

[8] = test system: P. intermedia; assay: as above; type: cell-based, Prevotella intermedia; conditions: control spot, dilution not given; after 5 days of incubation
Procedure: as §2

[9] = test system: F. nucleatum; assay: as above; type: cell-based, Fusobacterium nucleatum; conditions: control spot, dilution not given; after 5 days of incubation
Procedure: as §2

[10] = test system: Aggregatibacter actinomycetemcomitans (A.a); assay: as above; type: cell-based; conditions: control spot, dilution not given; after 5 days of incubation
Procedure: as §2

[11] = test system: C. rectus; assay: as above; type: cell-based, Campylobacter rectus; conditions: control spot, dilution not given; after 5 days of incubation
Procedure: as §2, with “The” for “The diameter of each zone was measured in mm. The”

[12] = test system: C. rectus, Aggregatibacter actinomycetemcomitans (A.a), C. albicans, P. gingivalis, P. intermedia, F. nucleatum and S. mutans; assay: in vitro antimicrobial activity, summary over the seven microbes (Example 3); type: cell-based; conditions: overall summary of Example 3
Procedure: Experimental Design: Blood agar (for the 3 anaerobic bacteria, 3 facultative bacteria and 1 aerobic yeast; Fisher Scientific) plates were individually swabbed with fresh 24 h broth cultures of C. rectus, Aggregatibacter actinomycetemcomitans (A.a), C. albicans, P. gingivalis, P. intermedia, F. nucleatum and S. mutans to provide a confluent lawn of microbial growth. Five minutes after swabbing the plates (to allow the inoculum to absorb into the agar), the test and control specimens (see below) were aseptically pipetted (5 ul) onto designated places on the plates and allowed to adsorb (or adhere, in the case of the undiluted sera) into the agar. Assays were conducted in duplicate and undiluted and 1:5 and 1:10 dilutions of the solutions and sterile saline (negative control) and chlorhexidine (CHX) were used. The plates were incubated agar-side up at 37° C. in a GasPak anaerobic jar or in 5% CO2 for 72 h. Plates were examined at 72 h for zones of inhibition of growth of the microbes. The diameter of each zone was measured in mm. The zones of inhibition of each dilution sample were compared to the zones of control saline without antimicrobial components. If the zones of the solutions were the same size (or smaller) than the inhibition zones from the control saline than there was judged no inhibition of antimicrobial activity by the antimicrobial solutions. […]

[H]/N=C(\N/C(=N/[H])NCCCCCCNC(=N)NC(=N)Nc1ccc(Cl)cc1)Nc1ccc(Cl)cc1 [Chlorhexidine, chlorhexidine]
zone of inhibition [1]: 19 mm | zone of inhibition [2]: 25 mm | zone of inhibition [3]: 24 mm | zone of inhibition [4]: 40 mm | diameter of zone of inhibition [5]: 16 mm | circumference of zone of inhibition [6]: 20 mm | circumference of zone of inhibition [7]: 14 mm | diameter of zone of inhibition [8]: 20 mm | circumference of zone of inhibition [9]: 15 mm | circumference of zone of inhibition [10]: 11 mm | circumference of zone of inhibition [11]: 16 mm | inhibition of growth of the seven species, in words [12]: inhibited the microbial growth of each species
